Key:
HEK-293 cells = test: HEK-293 Cytotoxicity Assay (CellTiter-Glo); assay type: cell-based; settings: Homo sapiens, HEK293, 72 h incubation, CellTiter-Glo luminescence
In short: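 HEK-293 cells treated 72 h with 8 concentrations (4-fold dilutions, 0.2% DMSO final). Viability read by CellTiter-Glo luminescence; IC50 from four-parameter logistic fit of % inhibition.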

BTK = target: T1, BTK (Homo sapiens, UniProt Q06187); test: Cell Degradation: BTK degradation in TMD-8 cells, HTRF assay; assay type: cell-based; settings: 6 h treatment, IC50 (DC50) of BTK degradation
T1 construct: High control=Cell group with added DMSO and without compound, indicating microplate readings without BTK degradation; endogenous in cells; host or cells: TMD-8 cells
In short: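 TMD-8 cells treated 6 h with 8-dose 6-fold dilutions in 0.2% DMSO, then lysed and BTK quantified by HTRF (665/620 nm). Degradation % normalised to high/low controls; DC50 from four-parameter fit, Dmax as maximal degradation.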

T1 sequence (Q06187 whole entry): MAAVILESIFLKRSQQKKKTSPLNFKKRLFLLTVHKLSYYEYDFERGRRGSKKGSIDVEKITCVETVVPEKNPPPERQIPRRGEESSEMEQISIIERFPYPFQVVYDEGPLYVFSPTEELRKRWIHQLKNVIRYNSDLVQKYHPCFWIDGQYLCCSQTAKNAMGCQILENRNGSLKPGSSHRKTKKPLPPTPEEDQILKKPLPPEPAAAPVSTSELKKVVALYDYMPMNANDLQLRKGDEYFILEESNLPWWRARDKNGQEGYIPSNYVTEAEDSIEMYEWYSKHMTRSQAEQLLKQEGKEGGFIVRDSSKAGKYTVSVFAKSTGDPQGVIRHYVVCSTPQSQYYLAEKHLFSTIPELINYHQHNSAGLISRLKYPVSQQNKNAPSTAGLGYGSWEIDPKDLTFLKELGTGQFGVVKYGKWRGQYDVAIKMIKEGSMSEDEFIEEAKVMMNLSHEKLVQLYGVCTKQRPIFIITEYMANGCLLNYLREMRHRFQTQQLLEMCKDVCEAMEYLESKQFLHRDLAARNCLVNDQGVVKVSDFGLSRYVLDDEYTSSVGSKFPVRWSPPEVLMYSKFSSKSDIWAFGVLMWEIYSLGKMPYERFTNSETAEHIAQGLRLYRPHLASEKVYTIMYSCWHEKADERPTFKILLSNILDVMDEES

DC50 (BTK) [nM] | Structure (SMILES) | IC50 (HEK-293 cells) [nM]
1.64 | CC(C)(C)c1noc(C(=O)N[C@@H]2CCc3cc(-c4ncnc5[nH]c(-c6ccc(N7CCN(CC8CCN(c9ccc(N%10CCC(=O)NC%10=O)cc9)CC8)CC7)cn6)cc45)ccc32)n1 [Example 150, (R)-3-(tert-butyl)-N-(5-(6-(5-(4-((1-(4-(2,4-dioxotetrahydropyrimidin-1(2H)-yl)phenyl)piperidin-4-yl)methyl)piperazin-1-yl)pyridin-2-yl)-7H-pyrrolo[2,3-d]pyrimidin-4-yl)-2,3-dihydro-1H-inden-1-yl)-1,2,4-oxadiazole-5-carboxamide] | > 10000
3.24 | CC(C)(C)c1noc(C(=O)N[C@@H]2CCc3cc(-c4ncnc5[nH]c(-c6ccc(N7CCN(CC8CCN(c9ccc(N%10CCC(=O)NC%10=O)cc9)CC8)CC7)nc6)cc45)ccc32)n1 [Example 151, (R)-3-(tert-butyl)-N-(5-(6-(6-(4-((1-(4-(2,4-dioxotetrahydropyrimidin-1(2H)-yl)phenyl)piperidin-4-yl)methyl)piperazin-1-yl)pyridin-3-yl)-7H-pyrrolo[2,3-d]pyrimidin-4-yl)-2,3-dihydro-1H-inden-1-yl)-1,2,4-oxadiazole-5-carboxamide] | > 10000
> 2000 | Cc1cc(-c2ncnc3[nH]c(-n4nc(C)c(C5CCN(CC6CCN(c7ccc(N8CCC(=O)NC8=O)cc7)CC6)CC5)c4C)cc23)ccc1[C@@H](C)NC(=O)c1nc(C(C)(C)C)no1 [Example 152, (R)-3-(tert-butyl)-N-(1-(4-(6-(4-(1-((1-(4-(2,4-dioxotetrahydropyrimidin-1(2H)-yl)phenyl)piperidin-4-yl)methyl)piperidin-4-yl)-3,5-dimethyl-1H-pyrazol-1-yl)-7H-pyrrolo[2,3-d]pyrimidin-4-yl)-2-methylphenyl)ethyl)-1,2,4-oxadiazole-5-carboxamide] | 2460
2.02 | Cc1cc(-c2ncnc3[nH]c(-c4ccc(N5CCN(C6CC(c7ccc(C8CCC(=O)NC8=O)cc7)C6)CC5)cc4)cc23)ccc1[C@@H](C)NC(=O)c1nc(C(C)(C)C)no1 (stereo partly drawn) [Example 153, 3-(tert-butyl)-N-((1R)-1-(4-(6-(4-(4-(3-(4-(2,6-dioxopiperidin-3-yl)phenyl)cyclobutyl)piperazin-1-yl)phenyl)-7H-pyrrolo[2,3-d]pyrimidin-4-yl)-2-methylphenyl)ethyl)-1,2,4-oxadiazole-5-carboxamide] | 9580
0.79 | C[C@@H](NC(=O)c1nc(C(C)(C)C)no1)c1ccc(-c2ncnc3[nH]c(-c4ccc(N5CCN(CC6CCN(c7ccc(N8CCC(=O)NC8=O)cc7)CC6)CC5)cn4)cc23)cc1F [Example 154, (R)-3-(tert-butyl)-N-(1-(4-(6-(5-(4-((1-(4-(2,4-dioxotetrahydropyrimidin-1(2H)-yl)phenyl)piperidin-4-yl)methyl)piperazin-1-yl)pyridin-2-yl)-7H-pyrrolo[2,3-d]pyrimidin-4-yl)-2-fluorophenyl)ethyl)-1,2,4-oxadiazole-5-carboxamide] | > 10000
2.43 | CC(C)(C)c1nc(C(=O)N[C@@H]2CCc3cc(-c4ncnc5[nH]c(-c6ccc(N7CCN(CC8CCN(c9ccc(N%10CCC(=O)NC%10=O)cc9)CC8)CC7)cc6)cc45)ccc32)no1 [Example 156, (R)-5-(tert-butyl)-N-(5-(6-(4-(4-((1-(4-(2,4-dioxotetrahydropyrimidin-1(2H)-yl)phenyl)piperidin-4-yl)methyl)piperazin-1-yl)phenyl)-7H-pyrrolo[2,3-d]pyrimidin-4-yl)-2,3-dihydro-1H-inden-1-yl)-1,2,4-oxadiazole-3-carboxamide] | > 10000
1.04 | Cc1cc(-c2ncnc3[nH]c(-c4ccc(C5CN(CC6CCN(c7ccc(N8CCC(=O)NC8=O)cc7)CC6)C5)cc4)cc23)ccc1[C@@H](C)NC(=O)c1nc(C(C)(C)C)no1 [Example 157, (R)-3-(tert-butyl)-N-(1-(4-(6-(4-(1-((1-(4-(2,4-dioxotetrahydropyrimidin-1(2H)-yl)phenyl)piperidin-4-yl)methyl)azetidin-3-yl)phenyl)-7H-pyrrolo[2,3-d]pyrimidin-4-yl)-2-methylphenyl)ethyl)-1,2,4-oxadiazole-5-carboxamide] | > 10000
1.12 | Cc1cc(-c2ncnc3[nH]c(-c4ccc(C5CCN(CC6CCN(c7ccc(N8CCC(=O)NC8=O)cc7)CC6)C5)cc4)cc23)ccc1[C@@H](C)NC(=O)c1nc(C(C)(C)C)no1 (stereo partly drawn) [Example 158, 3-(tert-butyl)-N-((1R)-1-(4-(6-(4-(1-((1-(4-(2,4-dioxotetrahydropyrimidin-1(2H)-yl)phenyl)piperidin-4-yl)methyl)pyrrolidin-3-yl)phenyl)-7H-pyrrolo[2,3-d]pyrimidin-4-yl)-2-methylphenyl)ethyl)-1,2,4-oxadiazole-5-carboxamide] | 4040
0.93 | Cc1cc(-c2ncnc3[nH]c(-c4ccc(C5=CCN(CC6CCN(c7ccc(N8CCC(=O)NC8=O)cc7)CC6)C5)nc4)cc23)ccc1[C@@H](C)NC(=O)c1nc(C(C)(C)C)no1 [Example 159, (R)-3-(tert-butyl)-N-(1-(4-(6-(6-(1-((1-(4-(2,4-dioxotetrahydropyrimidin-1(2H)-yl)phenyl)piperidin-4-yl)methyl)-2,5-dihydro-1H-pyrrol-3-yl)pyridin-3-yl)-7H-pyrrolo[2,3-d]pyrimidin-4-yl)-2-methylphenyl)ethyl)-1,2,4-oxadiazole-5-carboxamide] | > 10000
1.25 | Cc1cc(-c2ncnc3[nH]c(-c4cnc(N5CCN(CC6CCN(c7ccc(N8CCC(=O)NC8=O)cc7)CC6)CC5)nc4)cc23)ccc1[C@@H](C)NC(=O)c1nc(C(C)(C)C)no1 [Example 160, (R)-3-(tert-butyl)-N-(1-(4-(6-(2-(4-((1-(4-(2,4-dioxotetrahydropyrimidin-1(2H)-yl)phenyl)piperidin-4-yl)methyl)piperazin-1-yl)pyrimidin-5-yl)-7H-pyrrolo[2,3-d]pyrimidin-4-yl)-2-methylphenyl)ethyl)-1,2,4-oxadiazole-5-carboxamide] | > 10000
0.92 | Cc1cc(-c2ncnc3[nH]c(-c4c(C)nn(C5CCN(C(=O)CNCC6CCN(c7ccc(N8CCC(=O)NC8=O)cc7)CC6)CC5)c4C)cc23)ccc1[C@@H](C)NC(=O)c1nc(C(C)(C)C)no1 [Example 161, (R)-3-(tert-butyl)-N-(1-(4-(6-(1-(1-(((1-(4-(2,4-dioxotetrahydropyrimidin-1(2H)-yl)phenyl)piperidin-4-yl)methyl)glycyl)piperidin-4-yl)-3,5-dimethyl-1H-pyrazol-4-yl)-7H-pyrrolo[2,3-d]pyrimidin-4-yl)-2-methylphenyl)ethyl)-1,2,4-oxadiazole-5-carboxamide] | 3550
1.6 | Cc1cc(-c2ncnc3[nH]c(-c4ccc(C5CCN(CC6CCN(c7ccc(N8CCC(=O)NC8=O)cc7)CC6)C5)nc4)cc23)ccc1[C@@H](C)NC(=O)c1nc(C(C)(C)C)no1 (stereo partly drawn) [Example 162, 3-(tert-butyl)-N-((1R)-1-(4-(6-(6-(1-((1-(4-(2,4-dioxotetrahydropyrimidin-1(2H)-yl)phenyl)piperidin-4-yl)methyl)pyrrolidin-3-yl)pyridin-3-yl)-7H-pyrrolo[2,3-d]pyrimidin-4-yl)-2-methylphenyl)ethyl)-1,2,4-oxadiazole-5-carboxamide] | > 10000
1.32 | Cc1cc(-c2ncnc3[nH]c(-c4c(C)nn(C5CCN(CC6CCN(c7ccc(N8CCC(=O)NC8=O)cc7)CC6)C5)c4C)cc23)ccc1[C@@H](C)NC(=O)c1nc(C(C)(C)C)no1 (stereo partly drawn) [Example 163, 3-(tert-butyl)-N-((1R)-1-(4-(6-(1-(1-((1-(4-(2,4-dioxotetrahydropyrimidin-1(2H)-yl)phenyl)piperidin-4-yl)methyl)pyrrolidin-3-yl)-3,5-dimethyl-1H-pyrazol-4-yl)-7H-pyrrolo[2,3-d]pyrimidin-4-yl)-2-methylphenyl)ethyl)-1,2,4-oxadiazole-5-carboxamide] | > 10000
1.26 | Cc1cc(-c2ncnc3[nH]c(-c4ccc(N5CC6(CN(CC7CCN(c8ccc(N9CCC(=O)NC9=O)cc8)CC7)C6)C5)cc4)cc23)ccc1[C@@H](C)NC(=O)c1nc(C(C)(C)C)no1 [Example 164, (R)-3-(tert-butyl)-N-(1-(4-(6-(4-(6-((1-(4-(2,4-dioxotetrahydropyrimidin-1(2H)-yl)phenyl)piperidin-4-yl)methyl)-2,6-diazaspiro[3.3]heptan-2-yl)phenyl)-7H-pyrrolo[2,3-d]pyrimidin-4-yl)-2-methylphenyl)ethyl)-1,2,4-oxadiazole-5-carboxamide] | > 10000
0.69 | Cc1cc(-c2ncnc3[nH]c(-c4ccc(N5CCN(CC6CCN(c7ccc(N8CCC(=O)NC8=O)cc7)CC6)CC5)cn4)cc23)ccc1[C@@H](C)NC(=O)c1nc(C2(C)CC2)no1 [Example 165, (R)-N-(1-(4-(6-(5-(4-((1-(4-(2,4-dioxotetrahydropyrimidin-1(2H)-yl)phenyl)piperidin-4-yl)methyl)piperazin-1-yl)pyridin-2-yl)-7H-pyrrolo[2,3-d]pyrimidin-4-yl)-2-methylphenyl)ethyl)-3-(1-methylcyclopropyl)-1,2,4-oxadiazole-5-carboxamide] | > 10000
1.61 | Cc1cc(-c2ncnc3[nH]c(-c4ccc(N5CCN(CC6CCN(c7ccc(N8CCC(=O)NC8=O)cc7)CC6)CC5)nc4)cc23)ccc1[C@@H](C)NC(=O)c1nc(C2(C)CC2)no1 [Example 166, (R)-N-(1-(4-(6-(6-(4-((1-(4-(2,4-dioxotetrahydropyrimidin-1(2H)-yl)phenyl)piperidin-4-yl)methyl)piperazin-1-yl)pyridin-3-yl)-7H-pyrrolo[2,3-d]pyrimidin-4-yl)-2-methylphenyl)ethyl)-3-(1-methylcyclopropyl)-1,2,4-oxadiazole-5-carboxamide] | > 10000
